The subject of the first experiment is 30171 (donor line of iPSC-derived cardiomyocytes). Kind of experiment: POD (EC05) for decrease in beat frequency (negative chronotrope) vs vehicle; higher = less potent (higher point of departure). The following applies: exposure time: 90 min. How it is done: (§1)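 Human iPSC-derived cardiomyocytes from 16 donors were exposed for 90 min at 37 °C to each PFAS at 0.1, 1, 10 and 100 µM in 0.5% DMSO, 384-well plates. Kinetic Ca2+ flux (FLIPR) and Hoechst nuclei counts were normalised to vehicle wells and fitted with a hierarchical Bayesian Hill model to give donor-specific PODs: EC05 for beat-rate increase or decrease and for decay-to-rise ratio increase (QT proxy), EC95 for peak-frequency loss (asystole), EC10 for total cell number loss. 0.03 µM is the lower bound.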
`O=C(O)C(F)(F)C(F)(F)C(F)(F)C(F)(F)C(F)(F)F` [Perfluorohexanoic_acid]: the POD vs vehicle is over 100 µM.

As for `O=C(O)C(F)(F)C(F)(F)C(F)(F)C(F)(F)C(F)(F)C(F)(F)C(F)(F)C(F)(F)F` [Perfluorononanoic_acid], the POD vs vehicle was found to be 7.86 µM.

The compound `O=S(=O)(O)C(F)(F)C(F)(F)C(F)(F)C(F)(F)C(F)(F)C(F)(F)C(F)(F)C(F)(F)F` [Perfluorooctanesulfonic_acid] yielded a POD vs vehicle of 6.94 µM.

Compound `O=C(O)C(F)(F)C(F)(F)C(F)(F)C(F)(F)C(F)(F)C(F)(F)C(F)(F)F` [Perfluorooctanoic_acid] had a POD vs vehicle of 7.04 µM.

In turn, `O=C(O)C(F)(F)C(F)(F)C(F)(F)C(F)(F)F` [Perfluoropentanoic_acid] displayed a POD vs vehicle of over 100 µM.

The compound `O=C(O)C(F)(F)C(F)(F)F` [Perfluoropropanoic_acid] gave a POD vs vehicle of over 100 µM.

`O=C(O)C(F)(F)C(F)(F)C(F)(F)C(F)(F)C(F)(F)C(F)(F)C(F)(F)C(F)(F)C(F)(F)C(F)(F)F` [Perfluoroundecanoic_acid] came in with a POD vs vehicle of 0.96 µM.

`O=S(=O)([O-])C(F)(F)C(F)(F)C(F)(F)C(F)(F)F.[K+]` [Potassium_perfluorobutanesulfonate] yielded a POD vs vehicle of over 100 µM.

The next experiment deals with 1518 (donor line of iPSC-derived cardiomyocytes). The description is as above. The following applies: exposure time: 90 min. How it is done: as §1
`O=C(O)C(F)(F)C(F)(F)OC(F)(F)F` [Perfluoro-3-methoxypropanoic_acid] had a POD vs vehicle of over 100 µM.

With `O=C(O)C(F)(F)C(F)(F)C(F)(F)OC(F)(C(F)(F)F)C(F)(F)F` [Perfluoro-4-isopropoxybutanoic_acid], the POD vs vehicle was over 100 µM.

`O=S(=O)(O)C(F)(F)C(F)(F)C(F)(F)C(F)(F)F` [Perfluorobutanesulfonic_acid] yielded a POD vs vehicle of over 100 µM.

On to `O=C(O)C(F)(F)C(F)(F)C(F)(F)F` [Perfluorobutanoic_acid], for which the POD vs vehicle is over 100 µM.

With `O=C(O)C(F)(F)C(F)(F)C(F)(F)C(F)(F)C(F)(F)C(F)(F)C(F)(F)C(F)(F)C(F)(F)F` [Perfluorodecanoic_acid], the POD vs vehicle is over 100 µM.

`O=C(O)C(F)(F)C(F)(F)C(F)(F)C(F)(F)C(F)(F)C(F)(F)F` [Perfluoroheptanoic_acid] showed a POD vs vehicle of over 100 µM.

`NS(=O)(=O)C(F)(F)C(F)(F)C(F)(F)C(F)(F)C(F)(F)C(F)(F)F` [Perfluorohexanesulfonamide] displayed a POD vs vehicle of 32.8 µM.

`O=S(=O)(O)C(F)(F)C(F)(F)C(F)(F)C(F)(F)C(F)(F)C(F)(F)F` [Perfluorohexanesulfonic_acid] yielded a POD vs vehicle of over 100 µM.

For the compound `O=C(O)C(F)(F)C(F)(F)C(F)(F)C(F)(F)C(F)(F)F` [Perfluorohexanoic_acid], the POD vs vehicle is over 100 µM.

Turning to `O=C(O)C(F)(F)C(F)(F)C(F)(F)C(F)(F)C(F)(F)C(F)(F)C(F)(F)C(F)(F)F` [Perfluorononanoic_acid], the POD vs vehicle was 51.1 µM.

`O=S(=O)(O)C(F)(F)C(F)(F)C(F)(F)C(F)(F)C(F)(F)C(F)(F)C(F)(F)C(F)(F)F` [Perfluorooctanesulfonic_acid]: the POD vs vehicle was over 100 µM.

On to `O=C(O)C(F)(F)C(F)(F)C(F)(F)C(F)(F)C(F)(F)C(F)(F)C(F)(F)F` [Perfluorooctanoic_acid], for which the POD vs vehicle was 92.7 µM.

As for `O=C(O)C(F)(F)C(F)(F)C(F)(F)C(F)(F)F` [Perfluoropentanoic_acid], the POD vs vehicle was over 100 µM.

`O=C(O)C(F)(F)C(F)(F)F` [Perfluoropropanoic_acid] displayed a POD vs vehicle of over 100 µM.

Compound `O=C(O)C(F)(F)C(F)(F)C(F)(F)C(F)(F)C(F)(F)C(F)(F)C(F)(F)C(F)(F)C(F)(F)C(F)(F)F` [Perfluoroundecanoic_acid] registered a POD vs vehicle of 1.19 µM.

On to `O=S(=O)([O-])C(F)(F)C(F)(F)C(F)(F)C(F)(F)F.[K+]` [Potassium_perfluorobutanesulfonate], for which the POD vs vehicle was over 100 µM.

In another experiment the test system is 11235 (donor line of iPSC-derived cardiomyocytes). The description is as above. The following applies: exposure time: 90 min. How it is done:
as §1
In the case of `O=C(O)C(F)(F)C(F)(F)OC(F)(F)F` [Perfluoro-3-methoxypropanoic_acid], the POD vs vehicle is over 100 µM.

The compound `O=C(O)C(F)(F)C(F)(F)C(F)(F)OC(F)(C(F)(F)F)C(F)(F)F` [Perfluoro-4-isopropoxybutanoic_acid] came in with a POD vs vehicle of over 100 µM.

`O=S(=O)(O)C(F)(F)C(F)(F)C(F)(F)C(F)(F)F` [Perfluorobutanesulfonic_acid] returned a POD vs vehicle of 41.4 µM.

`O=C(O)C(F)(F)C(F)(F)C(F)(F)F` [Perfluorobutanoic_acid]: the POD vs vehicle is over 100 µM.

`O=C(O)C(F)(F)C(F)(F)C(F)(F)C(F)(F)C(F)(F)C(F)(F)C(F)(F)C(F)(F)C(F)(F)F` [Perfluorodecanoic_acid] showed a POD vs vehicle of 15.5 µM.

For the compound `O=C(O)C(F)(F)C(F)(F)C(F)(F)C(F)(F)C(F)(F)C(F)(F)F` [Perfluoroheptanoic_acid], the POD vs vehicle came to 20.6 µM.

`NS(=O)(=O)C(F)(F)C(F)(F)C(F)(F)C(F)(F)C(F)(F)C(F)(F)F` [Perfluorohexanesulfonamide]: the POD vs vehicle turned out to be 0.693 µM.

`O=S(=O)(O)C(F)(F)C(F)(F)C(F)(F)C(F)(F)C(F)(F)C(F)(F)F` [Perfluorohexanesulfonic_acid] had a POD vs vehicle of 26.5 µM.

The compound `O=C(O)C(F)(F)C(F)(F)C(F)(F)C(F)(F)C(F)(F)F` [Perfluorohexanoic_acid] yielded a POD vs vehicle of over 100 µM.

As for `O=C(O)C(F)(F)C(F)(F)C(F)(F)C(F)(F)C(F)(F)C(F)(F)C(F)(F)C(F)(F)F` [Perfluorononanoic_acid], the POD vs vehicle came to 2.8 µM.

`O=S(=O)(O)C(F)(F)C(F)(F)C(F)(F)C(F)(F)C(F)(F)C(F)(F)C(F)(F)C(F)(F)F` [Perfluorooctanesulfonic_acid]: the POD vs vehicle is 0.581 µM.

In turn, `O=C(O)C(F)(F)C(F)(F)C(F)(F)C(F)(F)C(F)(F)C(F)(F)C(F)(F)F` [Perfluorooctanoic_acid] displayed a POD vs vehicle of 5.14 µM.

As for `O=C(O)C(F)(F)C(F)(F)C(F)(F)C(F)(F)F` [Perfluoropentanoic_acid], the POD vs vehicle was over 100 µM.

In turn, `O=C(O)C(F)(F)C(F)(F)F` [Perfluoropropanoic_acid] gave a POD vs vehicle of over 100 µM.

Turning to `O=C(O)C(F)(F)C(F)(F)C(F)(F)C(F)(F)C(F)(F)C(F)(F)C(F)(F)C(F)(F)C(F)(F)C(F)(F)F` [Perfluoroundecanoic_acid], the POD vs vehicle was 0.395 µM.

`O=S(=O)([O-])C(F)(F)C(F)(F)C(F)(F)C(F)(F)F.[K+]` [Potassium_perfluorobutanesulfonate] gave a POD vs vehicle of 67.8 µM.

The values are drawn from the supplement of paper PMC11368000.
